We go through three molecules from patent US20060293264A1, “STAT3 decoy oligonucleotides and uses therefor” (priority 2004, published 2006).

The test system of data set [1] is PCI-15B cells. The data set is described as follows: Gossypol dose response, MTT assays and cell counting. It counts as cell-based. As to conditions: 72 h, day 3 after treatment. The procedure: In FIG. 7, PCI-15B cells were treated with 0, 0.003, 0.03, 3, and 30 μM gossypol. After 3 days, MTT assays and cell counting experiments were performed. […] Bars indicate standard error. […] The STAT3 decoy will be combined with gossypol to determine the antitumor efficacy of the combination treatment.
In general terms: Tetrazolium assays rely on reduction of a dye to a coloured formazan, in cell work by metabolically active cells.

Data set [2] has as its system p53-responsive element. The data set is described as follows: p53-Luciferase reporter gene assay in UM-22B SCCHN cells. It counts as cell-based. The conditions noted are these: UM-22B p53-Luc, 2 μg transfected, 24 hrs. As for the experimental part: FIG. 8 depicts the inhibition of reporter gene expression from a p53-responsive element in SCCHN cells. An SCCHN cell line, UM-22B, was used to generate a stable cell line expressing a p53-Luciferase (p53-Luc) reporter gene (The p53-Luc plasmid carrying 14 repeats of p53 transcription recognition sequence: 5'-[…] ID NO: 30)), was obtained from Stratagene, Catalog number: 219085-51). The cells were transfected with 2 μg of the STAT3 decoy or the control mutant decoy. At 24 hrs after transfection, luciferase (Luc) activity was measured and normalized to the total amount of protein according to standard methods.
Background: In a reporter assay the amount or activity of a reporter protein is the signal.

The test system of data set [3] is GAS-responsive element. The data set is described as follows: pGAS-Luc reporter gene assay in UM-22B SCCHN cells. In kind it is cell-based. The conditions noted are these: UM-22B pGAS-Luc, 2 μg transfected, 24 hrs, IFN-γ stimulation. The procedure: FIG. 9 depicts the inhibition of reporter gene expression from GAS-responsive element in SCCHN cells. An SCCHN cell line, UM-22B, was used to generate a stable cell line expressing a pGAS-Luc reporter gene (pGAS-Luc plasmid carrying 4 repeats of GAS sequence: [NT] ID NO: 31), was obtained from Stratagene, Catalog number: 219091-51). The cells were transfected with 2 μg of the STAT3 decoy or the control mutant decoy. At 24 hrs after transfection, luciferase activity was measured and normalized to the total amount of protein.

In data set [4] the target is T1, STAT1 (Homo sapiens, UniProt P42224).
T1 construct: Nuclear protein extracts of PCI-15B cells, prepared according to standard methods, were used for the EMSA; endogenous in cells; host or cells: PCI-15B cells (nuclear extract)
T1 sequence (P42224 2-750 limits assumed): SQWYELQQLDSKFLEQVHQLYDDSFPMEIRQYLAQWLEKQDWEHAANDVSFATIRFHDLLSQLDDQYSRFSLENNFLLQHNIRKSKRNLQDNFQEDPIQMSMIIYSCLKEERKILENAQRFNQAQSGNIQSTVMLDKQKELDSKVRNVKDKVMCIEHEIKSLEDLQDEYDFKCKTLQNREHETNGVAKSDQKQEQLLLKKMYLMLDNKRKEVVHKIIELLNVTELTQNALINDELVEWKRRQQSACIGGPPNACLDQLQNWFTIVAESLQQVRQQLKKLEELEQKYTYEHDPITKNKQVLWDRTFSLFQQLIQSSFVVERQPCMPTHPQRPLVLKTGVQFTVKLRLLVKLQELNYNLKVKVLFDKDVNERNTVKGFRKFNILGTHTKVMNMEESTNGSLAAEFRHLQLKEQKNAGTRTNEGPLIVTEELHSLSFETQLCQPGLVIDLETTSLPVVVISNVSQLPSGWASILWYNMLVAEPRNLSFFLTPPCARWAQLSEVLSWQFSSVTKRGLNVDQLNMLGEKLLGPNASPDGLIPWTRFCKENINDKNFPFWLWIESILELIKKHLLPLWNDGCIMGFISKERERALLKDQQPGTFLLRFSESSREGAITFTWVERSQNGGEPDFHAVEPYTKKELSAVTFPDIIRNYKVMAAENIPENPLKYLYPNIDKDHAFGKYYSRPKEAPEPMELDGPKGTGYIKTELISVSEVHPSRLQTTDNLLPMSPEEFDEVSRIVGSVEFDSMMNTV
Kind of data set: EMSA of STAT1 binding to the STAT3 decoy, PCI-15B nuclear extracts. The conditions noted are these: supershift. The procedure:
FIG. 10 depicts binding of STAT 1 to the STAT3 decoy in an electrophoretic mobility shift assay (EMSA). Nuclear protein extracts of PCI-15B cells, prepared according to standard methods, were used for the EMSA. The specificity of STAT1 or STAT3 binding to the STAT3 decoy was determined by supershifting with STAT1- or STAT3-specific antibodies, or both. The experiment has been repeated more than 3 times.
(In EMSA bound probe runs differently from free probe, usually more slowly.)

The target in data set [5] is T2, STAT3 (Homo sapiens, UniProt P40763).
T2 construct: Whole cell extracts were prepared and EMSAs performed on 4% native polyacrylamide gels; endogenous in cells; host or cells: whole cell extracts
T2 sequence (P40763 2-770 limits assumed): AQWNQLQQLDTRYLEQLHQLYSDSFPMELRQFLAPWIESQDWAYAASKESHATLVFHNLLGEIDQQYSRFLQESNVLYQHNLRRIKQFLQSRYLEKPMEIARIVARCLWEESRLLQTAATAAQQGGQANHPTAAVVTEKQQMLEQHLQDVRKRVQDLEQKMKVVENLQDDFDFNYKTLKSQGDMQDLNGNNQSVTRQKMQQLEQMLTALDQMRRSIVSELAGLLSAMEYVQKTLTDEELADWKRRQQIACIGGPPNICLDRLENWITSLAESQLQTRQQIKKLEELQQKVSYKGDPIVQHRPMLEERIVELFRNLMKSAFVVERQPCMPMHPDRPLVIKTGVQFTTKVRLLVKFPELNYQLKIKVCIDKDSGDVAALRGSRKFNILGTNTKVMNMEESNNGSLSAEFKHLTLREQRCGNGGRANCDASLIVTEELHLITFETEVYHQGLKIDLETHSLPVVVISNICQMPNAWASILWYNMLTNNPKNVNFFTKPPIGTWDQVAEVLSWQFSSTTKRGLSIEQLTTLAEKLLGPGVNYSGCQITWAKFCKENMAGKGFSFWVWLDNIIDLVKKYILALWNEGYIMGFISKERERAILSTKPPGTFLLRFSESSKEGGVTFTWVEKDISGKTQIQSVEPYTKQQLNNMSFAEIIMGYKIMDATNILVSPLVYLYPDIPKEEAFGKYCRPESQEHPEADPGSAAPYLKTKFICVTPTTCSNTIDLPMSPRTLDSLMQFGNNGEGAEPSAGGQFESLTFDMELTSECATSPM
The data set is described as follows: EMSA of STAT3 decoy and derivative decoys, relative binding to STAT3. As for the experimental part:
Derivative decoys were identified by electrophoretic mobility shift assay, performed as described herein. Table 1 describes a number of STAT3 decoy derivatives along with their relative binding to STAT3.
Electrophoretic Mobility Shift Assay (EMSA). Whole cell extracts were prepared and EMSAs performed on 4% native polyacrylamide gels as described (Xi, S., et al. J Biol Chem, 278: 31574-31583, 2003 and Wong, P., etal. Mol Cell Biol, 14. 914-922, 1994). STAT3 activation was evaluated by using binding reactions with 20 μg of extracted protein, and radiolabeled high-affinity serum inducible element (hSIE) duplex oligonucleotide (Wagner et al., EMBO J. 9(13):4477-4484 (1990)). Quantification of the STAT3 signal was performed by scanning the SIF-A band using a Molecular Dynamics Personal Densitometer SI and IMAGEQUANT software. […] For supershift experiments, extracts were preincubated with STAT3 polyclonal antibody (C-20, Santa Cruz Biotechnology). Gel shift bands were quantified by densitometry and the Molecular Analyst software (AlphaDigidoc 1000, Alpha-Innotech) with normalization of each band to the positive control lysate run on that gel as described previously for STAT3 activation determinations (Grandis, J. R. et al. Proc Natl Acad Sci USA, 97: 4227-4232., 2000).

In the case of `Cc1cc2c(C(C)C)c(O)c(O)c(C=O)c2c(O)c1-c1c(C)cc2c(C(C)C)c(O)c(O)c(C=O)c2c1O` [gossypol, 2,2′-bis-(Formyl-1,6,7-trihydroxy-5-isopropyl-3-methylnaphthalene)], the IC50 in data set [1] came out at 297 nM. Take “mutant control decoy: double-stranded oligonucleotide 5′-CATTTCCCTTAAATC-3′, 3′-GTAAAGGGAATTTAG-5′; same sequence as Mutant 3 of Table 1 [reference compound]”: in data set [2], the p53 reporter activity entry was “not”. Also, the “reporter gene expression from a GAS-responsive element (STAT1 reporter activity)” value in data set [3] was “not”. Besides, the “binding to STAT1” value in data set [4] is “not”.

B1: longer sequence: 5′-AGCTTGTCGACATTTCCCGTAAATCGTCGAG-3′, 3′-…-5′; longer decoy initially examined (nucleic acid, listed as Homo sapiens)
sense: AGCTTGTCGACATTTCCCGTAAATCGTCGAG
antisense: CTCGACGATTTACGGGAAATGTCGACAAGCT
modifications: listed as DNA, chemistry not given here
notes: longer decoy initially examined
On to B1, for which the “blocking STAT3 activation” value in data set [5] is listed as “effective”.

The IC50 is the concentration that gives 50% inhibition.
